The results in this text go back to US20250163038A1, “CBL-B MODULATORS AND USES THEREOF” (Nimbus Clio, Inc., priority 2021, published 2025).

The target of assay [1] is Recombinant human Cbl-b (aa 36-427) (Homo sapiens, UniProt Q13191). Put plainly: Cbl-b Biochemical Assay (TR-FRET). As to conditions: read-out: TR-FRET hCbl-b IC50.
Assay [2] deals with Jurkat (clone E6-1) cells with NFAT luciferase reporter. Put plainly: Jurkat reporter assay (NFAT Luciferase). The assay is classed as cell-based. As to conditions: Homo sapiens; Jurkat NFAT luciferase reporter cells, anti-CD3 stimulation, 6 hr; read-out: Jurkat NFAT EC50. (Reporter assays use an easily measured gene product as a stand-in for the process of interest.)
Assay [3] addresses T1, Recombinant human c-Cbl (aa 47-435) (Homo sapiens, UniProt P22681).
T1 sequence (P22681 47-435): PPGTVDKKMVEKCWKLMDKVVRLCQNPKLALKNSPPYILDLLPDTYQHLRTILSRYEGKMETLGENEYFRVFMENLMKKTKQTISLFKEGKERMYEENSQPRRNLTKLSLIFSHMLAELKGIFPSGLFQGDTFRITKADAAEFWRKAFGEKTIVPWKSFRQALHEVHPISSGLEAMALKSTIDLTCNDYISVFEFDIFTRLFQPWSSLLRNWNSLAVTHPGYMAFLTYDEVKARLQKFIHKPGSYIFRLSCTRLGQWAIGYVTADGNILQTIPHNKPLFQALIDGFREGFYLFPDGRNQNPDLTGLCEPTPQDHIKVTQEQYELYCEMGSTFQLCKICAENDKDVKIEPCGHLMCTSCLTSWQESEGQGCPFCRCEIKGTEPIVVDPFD
The assay is described as follows: c-Cbl Biochemical Assay (TR-FRET). As to conditions: hc-Cbl Biochemical Assay (TR-FRET); read-out: TR-FRET hcCbl IC50. For orientation: In TR-FRET formats the signal depends on donor and acceptor labels being close together.

pEC50, pIC50: −log10 of the molar value.

Recombinant human Cbl-b (aa 36-427), sequence (Q13191 36-427): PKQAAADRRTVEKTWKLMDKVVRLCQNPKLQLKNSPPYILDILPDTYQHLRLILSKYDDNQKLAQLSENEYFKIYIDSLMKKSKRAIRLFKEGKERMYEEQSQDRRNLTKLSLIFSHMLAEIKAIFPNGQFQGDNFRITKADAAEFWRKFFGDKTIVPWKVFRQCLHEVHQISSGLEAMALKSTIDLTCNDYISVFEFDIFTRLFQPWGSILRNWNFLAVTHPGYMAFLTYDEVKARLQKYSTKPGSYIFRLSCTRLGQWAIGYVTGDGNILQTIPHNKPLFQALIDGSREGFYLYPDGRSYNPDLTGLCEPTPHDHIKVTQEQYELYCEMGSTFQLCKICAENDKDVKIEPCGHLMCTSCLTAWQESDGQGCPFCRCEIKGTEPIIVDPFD

Regarding `Cn1cnnc1-c1cc(F)ccc1-c1cccc(-c2nc3cc(CN[C@@H]4CCC[C@@H]4O)ccc3o2)c1` [CM-1, (1S,2R)-2-(((2-(4′-Fluoro-2′-(4-methyl-4H-1,2,4-triazol-3-yl)-[1,1′-biphenyl]-3-yl)benzo[d]oxazol-5-yl)methyl)amino)cyclopentan-1-ol], the pIC50 in assay [1] and in assay [3] was more than 6.70 throughout. Moreover, in assay [2], the pEC50 is more than 6.70.
On to `CCOc1cc(-c2ccc(F)cc2-c2nncn2C)cc(-c2nc3cc(CN[C@@H]4CCC[C@@H]4O)cc(OC)c3o2)n1` [ADM-14, (1S,2R)-2-{[(2-{6-Ethoxy-4-[4-fluoro-2-(4-methyl-1,2,4-triazol-3-yl)phenyl]pyridin-2-yl}-7-methoxy-1,3-benzoxazol-5-yl)methyl]amino}cyclopentan-1-ol], for which the pIC50 in assay [1] and in assay [3] was more than 6.70 each time. Further, the pEC50 in assay [2] is more than 6.70.
Take `Cn1cnnc1-c1cc(F)ccc1-c1cc(-c2nc3cc(CO)cc(C(F)(F)F)c3[nH]2)nc(C2CC2)c1` [ADU-2, (2-{6-Cyclopropyl-4-[4-fluoro-2-(4-methyl-1,2,4-triazol-3-yl)phenyl]pyridin-2-yl}-7-(trifluoromethyl)-1H-1,3-benzodiazol-5-yl)methanol]: the negative-log IC50 (pIC50) in assay [1] and in assay [3] was more than 6.70 in each case. In assay [2], the pEC50 is 6.00 to 6.70.
Take `COc1cc(CNCC2CCC2)cc2nc(-c3cccc(-c4ccc(F)cc4-c4nncn4C)c3)oc12` [FA-1, 1-Cyclobutyl-N-((2-(4′-fluoro-2′-(4-methyl-4H-1,2,4-triazol-3-yl)-[1,1′-biphenyl]-3-yl)-7-methoxybenzo[d]oxazol-5-yl)methyl)methanamine]: the pIC50 in assay [1] and in assay [3] was more than 6.70 throughout. Besides, the pEC50 in assay [2] was more than 6.70.
Regarding `Cn1cnnc1-c1cc(F)ccc1-c1cccc(-c2nc3cc(CNCC4CCC4)cc(C4CC4)c3o2)c1` [FT-1, 1-Cyclobutyl-N-((7-cyclopropyl-2-(4′-fluoro-2′-(4-methyl-4H-1,2,4-triazol-3-yl)-[1,1′-biphenyl]-3-yl)benzo[d]oxazol-5-yl)methyl)methanamine], the pIC50 in assay [1] and in assay [3] was more than 6.70 in each case. The pEC50 in assay [2] was more than 6.70.
Take `COc1cc(CNC[C@H]2CCCO2)cc2nc(-c3cccc(-c4ccc(F)cc4-c4nncn4C)c3)oc12` [FR-1, (R)-1-(2-(4′-Fluoro-2′-(4-methyl-4H-1,2,4-triazol-3-yl)-[1,1′-biphenyl]-3-yl)-7-methoxybenzo[d]oxazol-5-yl)-N-((tetrahydrofuran-2-yl)methyl)methanamine]: the pIC50 in assay [1] is more than 6.70; in assay [3] it was 6.00 to 6.70. In addition, the negative-log EC50 (pEC50) in assay [2] was 6.00 to 6.70.
As for `Cn1cnnc1-c1cc(F)ccc1-c1cccc(-c2cn3ccc(CO)cc3n2)c1` [GN-5, (2-(4′-Fluoro-2′-(4-methyl-4H-1,2,4-triazol-3-yl)-[1,1′-biphenyl]-3-yl)imidazo[1,2-a]pyridin-7-yl)methanol], the pIC50 in assay [1] and in assay [3] was 4.30 to 5.00 each time. Moreover, the pEC50 in assay [2] is 4.30 to 5.00.
In the case of `Cn1cnnc1-c1cc(F)ccc1-c1cccc(-c2nc3cc(CN[C@H]4CCC[C@@H]4O)cc(C(F)(F)F)c3o2)c1` [HJ-1, (1S,2S)-2-(((2-(4′-Fluoro-2′-(4-methyl-4H-1,2,4-triazol-3-yl)-[1,1′-biphenyl]-3-yl)-7-(trifluoromethyl)benzo[d]oxazol-5-yl)methyl)amino)cyclopentan-1-ol], the pIC50 in assay [1] and in assay [3] was more than 6.70 in each case. In addition, in assay [2], the pEC50 is more than 6.70.
Turning to `CC(=O)NCc1cc(C(F)(F)F)c2oc(-c3cccc(-c4ccc(F)cc4-c4nncn4C)c3)nc2c1` [II-1, N-((2-(4′-Fluoro-2′-(4-methyl-4H-1,2,4-triazol-3-yl)-[1,1′-biphenyl]-3-yl)-7-(trifluoromethyl)benzo[d]oxazol-5-yl)methyl)acetamide], the pIC50 is 5.00 to 6.00 in assay [1] and 6.00 to 6.70 in assay [3]. In addition, the pEC50 in assay [2] is 5.00 to 6.00.

The pIC50 is the negative decadic logarithm of the IC50, by convention in mol/L. As a reminder, the pEC50 is −log10 of the EC50, conventionally taken in molar units.
